The values that follow come from publication PMC12040169 (PLOS Biology, 2025).

A short description of one data set: in vitro. The following applies: human, hela cells, % viability.
By viability is commonly meant a read-out of living cells in per cent, often relative to untreated cells. As for `Cc1[nH]n(-c2nc3ccccc3o2)c(=O)c1Cc1c(Cl)cccc1Cl` [CBK085382], the viability at 28.5 h, 10 µM came to 96.5%. For the molecule `COc1cnc(-c2ccsc2)c(NC(=O)c2cc(C)oc2C)n1` [CBK145294], the viability at 28.5 h, 10 µM was 93.2%. The same measure, in the same setting: with `O=C(C1CCCC1)N1CCC(n2nc(-c3cccs3)oc2=O)CC1` [CBK282424] the figure was 87.5%.

`Cc1ccc(SCCN2CCN(C)CC2)cc1` [CBK269631C]: the viability at 28.5 h, 10 µM came out at 89.2%. Same read-out and setting: the value for `CC1CN(CC(=O)NC(C)(C)c2ccccc2)CC(C)N1` (stereo not shown) [CBK051693] was 83.8%; that for `C=C(C)CNc1ccccc1C(=O)OC` [CBK003656C] was 89.1%; that for `C=CCNC(=O)N[C@H]1C[C@H]2C(=O)Nc3cc(Cl)ccc3C(=O)N2C1` [CBK289365] was 92.5%.

As to `O=C(NC1CC1)c1cnc2ccc(F)cc2c1O` [CBK307629], the viability at 28.5 h, 10 µM stood at 82.4%. On the same count and under the same terms, the value for `CCC(C)(C)c1ccc(S(=O)(=O)Nc2cc(Cl)ccc2O)cc1` [CBK045243] was 96%; that for `N#Cc1nccnc1S(=O)(=O)CCO` [CBK023595] was 90.1%. Same read-out and setting: with `N#Cc1ccccc1CSc1nnc(Cc2cccc3ccccc23)n1-c1ccccc1` [CBK266633] the figure was 89.7%; with `C[C@H](Nc1ccc(C(F)(F)F)cc1[N+](=O)[O-])C(=O)NCCOc1ccccc1F` [CBK297535], 106%; with `Cc1nonc1CNC(=O)C1CC2C=CC1C21CC1` (stereo not shown) [CBK281678], 91.4%.

Regarding `O=C(c1ccco1)N1CCN(c2cncc(-c3cc4ccccc4o3)n2)CC1` [CBK066044], the viability at 28.5 h, 10 µM was found to be 101%. On the same count and under the same terms, the value for `CCCN1CCC(N2CCN(c3ccc([N+](=O)[O-])cc3)CC2)CC1` [CBK018459] was 96.3%; that for `COc1ccc(NC(=O)c2ccccc2CCc2ccccc2)c([N+](=O)[O-])c1` [CBK268632] was 97%. On the same count and under the same terms, the value for `CCOc1cc(CCC(=O)NC(C)c2ccccc2)on1` (stereo not shown) [CBK282597] was 82.3%. The same measure, in the same setting: with `O=C(O)c1cccc(N2C(=O)C3C4C=CC(C3C2=O)C2C(=O)N(c3cccc(C(=O)O)c3)C(=O)C42)c1` (stereo not shown) [CBK261495] the figure was 110%; with `Cc1c(C(=O)Nc2ccc(C(=O)O)cc2)nnn1-c1ccc(Cl)cc1` [CBK300532], 84.4%; with `CC1=NN(c2ccc(S(N)(=O)=O)cc2)C(=O)/C1=C\c1ccc(-c2ccc(Cl)c([N+](=O)[O-])c2)o1` [CBK263612], 98.8%. `OCCNc1nccnc1Cl` [CBK089793]: the viability at 28.5 h, 10 µM was 114%. Still for that read-out and setting: the value for `CCc1n[nH]c(C(=O)N/N=C/c2cccnc2)c1C` [CBK263386] was 90.4%; that for `Cc1cccn2c(=O)cc(CN3CCC(c4cn[nH]c4)CC3)nc12` [CBK305764] was 101%; that for `COc1ccc([N+](=O)[O-])cc1NC(=O)CSc1nnnn1C` [CBK268950] was 93%. The same measure, in the same setting: with `COc1cccc(/C=N/NC(=O)C(=O)NCc2ccccn2)c1O` [CBK262097] the figure was 93.5%; with `CCCCC(CC)C(=O)N1CCN(c2ccc(OC)cc2)CC1` (stereo not shown) [CBK091414], 99.9%; with `CCCC(=O)N1CCC(C(=O)Nc2ccccc2F)CC1` [CBK304346], 108%.

`Cc1cc(COc2nccnc2N2CCN(CCCn3c(=O)[nH]c4ccccc43)CC2)no1` [CBK084199]: the viability at 28.5 h, 10 µM was 107%. The same measure, in the same setting: the value for `Cc1oc2ccc(O)cc2c1C(=O)NC(C)(C)CN1CCCC(C)C1` (stereo not shown) [CBK282601] was 105%; that for `Cn1cc(CNCc2ccc(N3CCCC3)nc2)c(-c2cccnc2)n1` [CBK306312] was 105%. Same read-out and setting: with `CCOC(=O)c1sc(NS(=O)(=O)Cc2ccccc2)nc1C` [CBK047448] the figure was 105%; with `CO/N=C(N)/C(N)=N/OC` [CBK019780], 98.4%.

On to `COC(=O)c1sccc1NC(=O)Cn1nnc(-c2ccc(C)cc2)n1` [CBK267183], for which the viability at 28.5 h, 10 µM stood at 98.4%. Same read-out and setting: with `CCN(CCO)c1ccc(Nc2nc(Br)cn3ccnc23)cc1` [CBK037475] the figure was 98.9%; with `CCCCNC(=O)CCn1c(=O)[nH]c2ccccc2c1=O` [CBK287824], 97%. Same read-out and setting: the value for `COc1cc2c(cc1OC)C1c3ccccc3N(Cn3nnc4ccccc43)C(=O)N1CC2` (stereo not shown) [CBK286193] was 84.2%; that for `CC(C)NC(=O)N1Cc2nc[nH]c2C[C@H]1c1nc(-c2ccc(OC(F)(F)F)cc2)no1` [CBK288960] was 85.9%. Same read-out and setting: the value for `CC(C)C(NC(=O)N1c2ccccc2NC(=O)C1C(C)C)C(=O)O` (stereo not shown) [CBK286670] was 100%; that for `O=C(c1ccc2ncccc2c1)N1CCC(c2ccncc2)CC1` [CBK283684] was 90.3%. `COc1ccc(C(O)CNC(C)C)c2c(C)c(C)oc12` (stereo not shown) [CBK011885C]: the viability at 28.5 h, 10 µM worked out at 97%. Turning to `COc1ccc2c(c1Br)C=C(n1ccnc1)CC2` [CBK017808], the viability at 28.5 h, 10 µM was found to be 76.9%. On the same count and under the same terms, with `O=C(CSc1nnc(CCc2ccccc2)n1-c1ccc(Cl)cc1)c1ccccc1` [CBK266277] the figure was 88.9%; with `CCOC(=O)[C@@]12CC=CCN(C(=O)c3cccnc3)[C@@H]1CCC2` [CBK284575], 90.8%; with `Cc1cc2occ(CC(=O)NCc3ccccn3)c2c(C)c1Cl` [CBK269175], 97.5%.

`CC1(C)CC(NC(=O)Cn2ccc3ccccc32)CCO1` (stereo not shown) [CBK304347]: the viability at 28.5 h, 10 µM was 98%. Same read-out and setting: the value for `CCN(CCc1nc2cc(OC)ccc2[nH]1)C(=O)c1ccc(=O)n(C)n1` [CBK307712] was 108%. Same read-out and setting: the value for `O=C(Nc1cnc(-c2cccc(C(F)(F)F)c2)c(-c2ccco2)n1)c1cccnc1` [CBK036714] was 95.3%; that for `O=C(NC1CCCC1)c1ccc2c(=O)[nH]cnc2c1` [CBK287990] was 90.1%.

On to `Nc1ncc(-c2cccc(/C=C/C(=O)O)c2)nc1N1CCN(CCO)CC1` [CBK063665], for which the viability at 28.5 h, 10 µM is 98.7%. On the same count and under the same terms, with `Cc1ccn2c(CN3CCC(n4nc(C)cc4C)CC3)c(C)nc2c1` [CBK281616] the figure was 83.6%; with `CC(=O)NCc1cccc(-c2cc(COc3ccc4c(c3)OCO4)cnc2-c2ccc(Cl)cc2)c1` [CBK164106A], 105%; with `O=c1[nH]c2ncc(-c3cccc4ncccc34)nc2n1C1CCCCC1` [CBK064861], 109%. For `O=C1NC(=O)C(CC(=O)N2CCC3(CCN(Cc4ccccc4)C3)C2)N1` (stereo not shown) [CBK136850], the viability at 28.5 h, 10 µM worked out at 88.8%. Same read-out and setting: the value for `Cc1cccc(CC(=O)N2CCC(c3ncc(C(=O)Nc4ccc(F)cc4)c(C)n3)CC2)c1` [CBK285885] was 101%. Still for that read-out and setting: the value for `CC(C)(Oc1ccc(Cl)cc1)C(=O)Nc1ccc(CN2CCOCC2)cc1` [CBK269940] was 89.1%; that for `COc1ccc(Cl)cc1NC(=O)COc1cccc2ccccc12` [CBK262995] was 94.9%. For the molecule `Cc1cc(C)n2nc(C(=O)N3CCC(C)CC3c3ccco3)nc2n1` (stereo not shown) [CBK305196], the viability at 28.5 h, 10 µM was determined as 84.8%. On the same count and under the same terms, the value for `Cc1ccc(C(CC(=O)O)NC(=O)c2ccc(S(=O)(=O)N3CCCC(C)C3)cc2)cc1` (stereo not shown) [CBK295345] was 95.7%; that for `CCNC(=S)N1CCN(CCNC=C2C(=O)CC(C)(C)CC2=O)CC1` [CBK263661] was 90.1%.

With `Nc1nc(SCc2nnc(S)n2-c2ccccc2)nc2sc3c(c12)CCC3` [CBK301216K], the viability at 28.5 h, 10 µM is 83.1%. On the same count and under the same terms, the value for `O=C(O)c1ccc(NS(=O)(=O)Cc2ccccc2[N+](=O)[O-])cc1` [CBK034054] was 90.4%; that for `COc1ccc2cc(C(=O)N(CCO)Cc3ccc(C)s3)n(C)c2c1` [CBK306831] was 116%; that for `COc1ccc(Br)c(C(CO)N(C)C(=O)CC#N)c1` (stereo not shown) [CBK304240] was 88%. The same measure, in the same setting: the value for `COc1ccccc1-c1nc(C2CCCN(C(=O)NCCc3cccs3)C2)n2ccccc12` (stereo not shown) [CBK047163] was 95.5%; that for `Cc1nc(S(=O)(=O)Cc2c(F)cccc2Cl)n(CC2CCCO2)c1C` (stereo not shown) [CBK304706] was 87.9%; that for `CN1CCC(N2CCN(C(=O)NCCCN3CCCC3=O)CC2)CC1` [CBK156105] was 102%. The same measure, in the same setting: the value for `O=C(CSc1nnc(-c2ccccc2F)n1-c1ccccc1)Nc1ccc2cn[nH]c2c1` [CBK267591] was 81.9%; that for `CNC(=O)CN1CC[C@H]2NC(=O)c3ccccc3OCC/C=C/C[C@H]2C1` [CBK292049] was 110%; that for `Cc1ccc([N+](=O)[O-])cc1S(=O)(=O)NCC(=O)O` [CBK266234] was 94.7%.

In the case of `CN(C)C(CC(=O)Nc1cccc(Cl)c1Cl)C(=O)O` (stereo not shown) [CBK266952], the viability at 28.5 h, 10 µM was found to be 107%. Still for that read-out and setting: with `CN1CCN(c2ccc(NC(=O)c3ccc([N+](=O)[O-])o3)cc2)CC1` [CBK269727] the figure was 18.8%. On the same count and under the same terms, the value for `O=C(NC(=S)Nc1ccc(N2CCN(Cc3ccccc3F)CC2)cc1)c1ccco1` [CBK268946] was 92.6%; that for `CCCCCCOC(=O)c1ccc2c(c1)C(=O)N(c1cccc(N)c1)C2=O` [CBK157034] was 106%.

As for `O=C(NC(=S)Nc1ccc(-c2ccc(CO)o2)cc1)c1ccc2c(c1)OCCO2` [CBK269038], the viability at 28.5 h, 10 µM was determined as 82.9%. The same measure, in the same setting: with `O=c1[nH]c(NCCCO)nc2sc3c(c12)CCCC3` [CBK025611] the figure was 87.9%. The same measure, in the same setting: with `Nc1nc(C2CC(N)C2)cc(N2CCC(Oc3ccccc3F)CC2)n1` (stereo not shown) [CBK306909] the figure was 85.5%; with `COc1ccc(OC)c(NC(=O)c2cc(=O)[nH]c3ccccc23)c1` [CBK297521], 92.7%; with `CC(C(=O)N1CCC(c2nn(C)c3ncccc23)CC1)c1ccccc1` (stereo not shown) [CBK282166], 97.4%.

The data set is the same for the next values; noted with them: human, hela cells, % viability, bulk resorufin, single well.
As to `Fc1ccc(OCCOc2ccccc2-c2ccc3c(c2)COC2(CCNCC2)O3)cc1` [CBK105745], the viability at 28.5 h, 10 µM is 88.7%.
